ChEMBL document CHEMBL1201862, “PubChem BioAssay data set” (2004)
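Values below derive from 48-hour exposures of cells grown in 96-well plates, with endpoints linearly interpolated between the two concentrations bracketing the appropriate inhibition level. GI50 marks 50% less growth.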 Activity calls are given as the source filed them. Rule as the data show it: active = GI50 up to about 1.1 µM and inactive = higher.

Assays:
Test in all cases: NCI anticancer screen, dose series, 48 h
[1] = tested on: NCI/ADR-RES
[2] = tested on: CCRF-CEM
[3] = tested on: OVCAR-3
[4] = tested on: SK-MEL-28
[5] = tested on: HOP-62
[6] = tested on: T47D
[7] = tested on: Malme-3M
[8] = tested on: SK-MEL-5
[9] = tested on: NCI-H226
[10] = tested on: SW-620
[11] = tested on: LOX IMVI
[12] = tested on: MDA-N
[13] = tested on: A549
[14] = tested on: SNB-75
[15] = tested on: MCF7
[16] = tested on: RXF 393
[17] = tested on: OVCAR-5
[18] = tested on: NCI-H522
[19] = tested on: HCT-15
[20] = tested on: COLO 205
[21] = tested on: TK-10
[22] = tested on: IGROV-1
[23] = tested on: HT-29
[24] = tested on: SK-MEL-2
[25] = tested on: CAKI-1
[26] = tested on: UACC-62
[27] = tested on: KM12
[28] = tested on: M14
[29] = tested on: RPMI-8226
[30] = tested on: HOP-92
[31] = tested on: SNB-19
[32] = tested on: NCI-H460
[33] = tested on: UACC-257
[34] = tested on: UO-31
[35] = tested on: Hs-578T
[36] = tested on: SN12C
[37] = tested on: MDA-MB-231
[38] = tested on: HCC 2998
[39] = tested on: K562
[40] = tested on: A498
[41] = tested on: SK-OV-3
[42] = tested on: EKVX
[43] = tested on: HCT-116
[44] = tested on: SF-268
[45] = tested on: SF-539
[46] = tested on: PC-3
[47] = tested on: MOLT-4
[48] = tested on: U-251
[49] = tested on: OVCAR-8
[50] = tested on: MDA-MB-435
[51] = tested on: SR
[52] = tested on: SF-295
[53] = tested on: DU-145
[54] = tested on: HL-60
[55] = tested on: 786-0
[56] = tested on: OVCAR-4
[57] = tested on: NCI-H23
[58] = tested on: ACHN

## O=C(/C=C/c1cccs1)c1ccccc1Cl
[1]
  GI50: 15 µM (inactive)
[2]
  GI50: 8.71 µM (inactive)
[3]
  GI50: 14.1 µM (inactive)
[4]
  GI50: 16.3 µM (inactive)
[5]
  GI50: 15.8 µM (inactive)
[6]
  GI50: 5.96 µM (inactive)
[7]
  GI50: 12.2 µM (inactive)
[8]
  GI50: 16.4 µM (inactive)
[9]
  GI50: 32.8 µM (inactive)
[10]
  GI50: 14.5 µM (inactive)
[11]
  GI50: 12.4 µM (inactive)
[12]
  GI50: 15.6 µM (inactive)
[13]
  GI50: 0.417 µM (active)
[14]
  GI50: 13.4 µM (inactive)
[15]
  GI50: 4.65 µM (inactive)
[16]
  GI50: 7.24 µM (inactive)
[17]
  GI50: 14.6 µM (inactive)
[18]
  GI50: 2.77 µM (inactive)
[19]
  GI50: 10.6 µM
[20]
  GI50: 18.8 µM (inactive)
[21]
  GI50: 16.4 µM (inactive)
[22]
  GI50: 17.6 µM (inactive)
[23]
  GI50: 16.9 µM (inactive)
[24]
  GI50: 20.1 µM (inactive)
[25]
  GI50: 10.6 µM (inactive)
[26]
  GI50: 13.3 µM (inactive)
[27]
  GI50: 7.31 µM (inactive)
[28]
  GI50: 1.99 µM (inactive)
[29]
  GI50: 16 µM (inactive)
[30]
  GI50: 25.5 µM (inactive)
[31]
  GI50: 15.6 µM (inactive)
[32]
  GI50: 15.8 µM (inactive)
[33]
  GI50: 17.8 µM (inactive)
[34]
  GI50: 0.615 µM (active)
[35]
  GI50: 14.1 µM (inactive)
[36]
  GI50: 15.9 µM (inactive)
[37]
  GI50: 19.2 µM (inactive)
[38]
  GI50: 16.8 µM (inactive)
[39]
  GI50: 21.3 µM (inactive)
[40]
  GI50: 10.2 µM (inactive)
[41]
  GI50: 30.7 µM (inactive)
[42]
  GI50: 15.1 µM (inactive)
[43]
  GI50: 13 µM (inactive)
[44]
  GI50: 11.4 µM (inactive)
[45]
  GI50: 22.4 µM (inactive)
[46]
  GI50: 15.4 µM (inactive)
[47]
  GI50: 5.7 µM (inactive)
[48]
  GI50: 13.5 µM (inactive)
[49]
  GI50: 23.7 µM (inactive)
[50]
  GI50: 10.9 µM (inactive)
[51]
  GI50: 4.2 µM (inactive)
[52]
  GI50: 17.8 µM (inactive)
[53]
  GI50: 12.4 µM (inactive)
[54]
  GI50: 5.81 µM (inactive)
[55]
  GI50: 14.1 µM (inactive)
[56]
  GI50: 6.31 µM (inactive)
[57]
  GI50: 8.81 µM (inactive)
[58]
  GI50: 14.8 µM (inactive)
